{
  "source": "patent US20110098177A1",
  "about": "“METHODS AND COMPOSITIONS OF PLANT MICRONUTRIENTS” (NOVUS INTERNATIONAL INC., priority 2006, published 2011)",
  "type_in_all_cases": "in vivo",
  "key": {"Florida-47 tomato": {"test_system": "Florida-47 tomato", "experiment": "Foliar nutrient concentration at 6 WAT, greenhouse Fall 2007, tomato", "settings": "Example 2; crop not specified (tomato / bell pepper)", "method": "The following experiments were performed in a green house during the fall of 2007 at GCREC, Balm, University of Florida. Fifteen products, at 3 different application rates were examined. The plot size was 2-gallon pots. Crop set-up, procedures and variables were as follows.\nTransplants of ‘Florida-47’ tomato and ‘Aristotle’ bell pepper plants in the 4-true leaf stage (about 6 inches tall) were planted in 2-gal pots on Aug. 27, 2007. Pots were filled with a commercially available planting medium. This medium was selected based on the mineral composition of the products to be applied without providing significant nutritional inputs to the crops. Irrigation was provided with drip lines delivering between 0.50 and 0.33 gal/day/pot for tomato and bell pepper, respectively, and the crops were irrigated three times per day. No foliar pesticides were necessary. […]\nMedium nutrient concentration was determined 1 week before treatment. […] The foliar tissue analysis was performed at 6 WAT and the concentration of N, P, K, Mg, Ca, S, B, Zn, Mn, Fe, and Cu was determined by a commercial laboratory. Plant toxicity was determined at 4 WAT by using a 0-10 visual scale, where 0=no visible damage and 10=total plant death. […]\nData were analyzed using a general linear model, and means were separated using orthogonal contrasts at the 5% significance level."}, "[1]": {"test_system": "soybean plants (Asgrow 1102)", "experiment": "Visual greenness ratings (1-5 scale) of soybean plants, open-field (Examples 11-12)", "settings": "for Greenness of soybean plants compared to control, statement: Foxhome site, 29 July rating", "method": "The following experiments were performed on soybean plants growing in open-field plots during the summer and fall of 2008 at two production fields in West Central Minnesota. […] Trial design was a randomized complete block with 4 replications. Each plot measured 10' by 30' and consisted of five 22'' rows. Although all five rows of each plot were treated, only the center three rows (25' in length) of each plot were machine harvested. The two fields selected for these studies had historical Iron Deficiency Chlorosis (IDC) issues. The two field sites were planted by farmers with elite Roundup Ready commodity type soybean varieties with IDC tolerance (Asgrow 1102, Monsanto Corp.). […] BIOX-M was applied at a rate of 1.12 kg Mn/ha. […] All V4 treatments were applied in 10 gallons per acre of water with a backpack sprayer with a hand boom designed to “band” apply product directly to the plant row. Three nozzles with ConeJet TXVS-2 tips were oriented on either side and over the top of each row. This maximized the applied product to the plant tissue itself and minimized application of product to the soil surface. […] The V6 treatments (where applicable) were applied in 20 gallons per acre of water to increase the suspension of the BIOX products."}, "Tygress tomato plants": {"test_system": "Tygress tomato plants", "experiment": "Foliar nutrient concentration at 7 WAT, greenhouse tomato spring 2009 (Examples 13-15)", "settings": "tomato leaves 1 week after treatment", "outline": "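Greenhouse 'Tygress' tomatoes in micronutrient-deficient medium received foliar treatments at 6 WAT (200 mL/plant, deionized water plus non-ionic surfactant). Newest non-applied leaves sampled at 7 WAT and analysed for N, P, K, Mg, Ca, B, Zn, Mn, Fe and Cu. Randomized complete block design with 6 replications; means separated by LSD at 5%.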"}},
  "data": [
    {"molecule": "CSCCC(O)C(=O)[O-].CSCCC(O)C(=O)[O-].[Zn+2]", "note": "(stereo not shown) [BIOX-Z, Zn-HMTBA]", "values": [
      {"measurement": "Foliar Zn concentration relative to the non-Zn control", "setting": "Florida-47 tomato", "value": "approximately 3 times"}
    ]},
    {"molecule": "Fe-HMTBA [BIOX-Fe]", "values": [
      {"measurement": "Mean visual greenness scores (1-5)", "setting": "[1]; 0.558 kg/ha, V4, V6, Jul. 15, 2008 Rating, Foxhome", "value": 2.4},
      {"measurement": "Mean visual greenness scores (1-5)", "setting": "[1]; 0.558 kg/ha, V4, V6, Jul. 15, 2008 Rating, Renville", "value": 2.4},
      {"measurement": "Mean visual greenness scores (1-5)", "setting": "[1]; 0.558 kg/ha, V4, V6, Jul. 29, 2008 Rating, Foxhome", "value": 1.0, "unit": "C"},
      {"measurement": "Mean visual greenness scores (1-5)", "setting": "[1]; 0.558 kg/ha, V4, V6, Jul. 29, 2008 Rating, Renville", "value": 1.1},
      {"measurement": "Mean visual greenness scores (1-5)", "setting": "[1]; 0.558 kg/ha, V4, Jul. 15, 2008 Rating, Foxhome", "value": 2.8},
      {"measurement": "Mean visual greenness scores (1-5)", "setting": "[1]; 0.558 kg/ha, V4, Jul. 15, 2008 Rating, Renville", "value": 2.6},
      {"measurement": "Mean visual greenness scores (1-5)", "setting": "[1]; 0.558 kg/ha, V4, Jul. 29, 2008 Rating, Foxhome", "value": "1.4 B, C"},
      {"measurement": "Mean visual greenness scores (1-5)", "setting": "[1]; 0.558 kg/ha, V4, Jul. 29, 2008 Rating, Renville", "value": 1.1},
      {"measurement": "Mean visual greenness scores (1-5)", "setting": "[1]; 1.12 kg/ha, V4, V6, Jul. 15, 2008 Rating, Foxhome", "value": 2.6},
      {"measurement": "Mean visual greenness scores (1-5)", "setting": "[1]; 1.12 kg/ha, V4, V6, Jul. 15, 2008 Rating, Renville", "value": 2.6},
      {"measurement": "Mean visual greenness scores (1-5)", "setting": "[1]; 1.12 kg/ha, V4, V6, Jul. 29, 2008 Rating, Foxhome", "value": "1.5 A, B, C"},
      {"measurement": "Mean visual greenness scores (1-5)", "setting": "[1]; 1.12 kg/ha, V4, V6, Jul. 29, 2008 Rating, Renville", "value": 1.4},
      {"measurement": "Mean visual greenness scores (1-5)", "setting": "[1]; 1.12 kg/ha, V4, Jul. 15, 2008 Rating, Foxhome", "value": 2.5},
      {"measurement": "Mean visual greenness scores (1-5)", "setting": "[1]; 1.12 kg/ha, V4, Jul. 15, 2008 Rating, Renville", "value": 2.1},
      {"measurement": "Mean visual greenness scores (1-5)", "setting": "[1]; 1.12 kg/ha, V4, Jul. 29, 2008 Rating, Foxhome", "value": 1.0, "unit": "C"},
      {"measurement": "Mean visual greenness scores (1-5)", "setting": "[1]; 1.12 kg/ha, V4, Jul. 29, 2008 Rating, Renville", "value": 1.0},
      {"measurement": "Greenness of soybean plants compared to control, statement", "setting": "[1]; higher rate (269 g Fe/ha) at V4 only", "value": "significantly increased the greenness in treated plants"},
      {"measurement": "Greenness of soybean plants compared to control, statement", "setting": "[1]; higher rate (269 g Fe/ha) at both V4 and V6", "value": "no change in greenness compared to control"},
      {"measurement": "Toxic effects on soybean plants (in words)", "setting": "[1]; iron concentrations 0.094% - 0.376% by weight", "value": "without toxic effects"},
      {"measurement": "Greenness of soybean plants compared to control, statement", "setting": "[1]; lower rate (134 g Fe/ha) at V4", "value": "had no effect on greenness"},
      {"measurement": "Greenness of soybean plants compared to control, statement", "setting": "[1]; lower rate (134 g Fe/ha) at both V4 and V6", "value": "significantly increased the greenness of the soybean plants"},
      {"measurement": "Foliar Fe concentration", "setting": "Tygress tomato plants; Fe 0.28 lb/acre", "value": 249, "unit": "ppm"},
      {"measurement": "Foliar Fe concentration", "setting": "Tygress tomato plants; Fe 0.57 lb/acre", "value": 388, "unit": "ppm"},
      {"measurement": "Foliar Fe concentration", "setting": "Tygress tomato plants; Fe 1.12 lb/acre", "value": 517, "unit": "ppm"},
      {"measurement": "Foliar Fe concentration", "setting": "Tygress tomato plants; Fe 1.74 lb/acre", "value": 453, "unit": "ppm"},
      {"measurement": "Foliar Fe concentration", "setting": "Tygress tomato plants; Fe 2.3 lb/acre", "value": 383, "unit": "ppm"}
    ]},
    {"molecule": "CSCCC(O)C(=O)[O-].CSCCC(O)C(=O)[O-].[Cu+2]", "note": "(stereo not shown) [BIOX-Cu, Cu-HMTBA]", "values": [
      {"measurement": "Foliar Cu concentration", "setting": "Tygress tomato plants; Cu 0.14 lb/acre", "value": 72, "unit": "ppm"},
      {"measurement": "Foliar Cu concentration", "setting": "Tygress tomato plants; Cu 0.28 lb/acre", "value": 91, "unit": "ppm"},
      {"measurement": "Foliar Cu concentration", "setting": "Tygress tomato plants; Cu 0.46 lb/acre", "value": 208, "unit": "ppm"},
      {"measurement": "Foliar Cu concentration", "setting": "Tygress tomato plants; Cu 0.55 lb/acre", "value": 397, "unit": "ppm"},
      {"measurement": "Foliar Cu relative to the non-Cu control", "setting": "Florida-47 tomato", "value": "about 4 times"}
    ]},
    {"molecule": "CSCCC(O)C(=O)[O-].CSCCC(O)C(=O)[O-].[Mn+2]", "note": "(stereo not shown) [BIOX-M, Mn-HMTBA]", "values": [
      {"measurement": "Mean visual greenness scores (1-5)", "setting": "[1]; 7.0 kg/ha, V4, Jul. 15, 2008 Rating, Foxhome", "value": 2.5},
      {"measurement": "Mean visual greenness scores (1-5)", "setting": "[1]; 7.0 kg/ha, V4, Jul. 15, 2008 Rating, Renville", "value": 2.9},
      {"measurement": "Mean visual greenness scores (1-5)", "setting": "[1]; 7.0 kg/ha, V4, Jul. 29, 2008 Rating, Foxhome", "value": 1.0, "unit": "C"},
      {"measurement": "Mean visual greenness scores (1-5)", "setting": "[1]; 7.0 kg/ha, V4, Jul. 29, 2008 Rating, Renville", "value": 1.3},
      {"measurement": "Greenness of soybean plants compared to control, statement", "setting": "[1]; BIOX-M 1.12 kg Mn/ha", "value": "small but significant increase in greenness"}
    ]}
  ]
}
